The values that follow come from PubChem BioAssay (NCI).

Among the test systems are UACC-62 melanoma; SF-539 CNS; CAKI-1 renal; IGROV1 ovarian; SK-MEL-28 melanoma; T-47D breast; SF-268 CNS; SK-MEL-5 melanoma; BT-549 breast; NCI-H23 lung.
Holding throughout (assay): NCI-60 cell line screen, 48 h

Structures are written as SMILES.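 In this assay, cells in 96-well plates receive the compound at five concentrations for 48 hours. Endpoints are linearly interpolated between the surrounding concentrations. GI50 = concentration required for 50% inhibition of growth. TGI is the concentration that stops growth completely.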

On to `COc1ccc(/C=C/C(=O)c2cc3c(N)c(C(=O)Nc4ccccc4C)sc3nc2C)cc1`, for which the GI50 in the test with UACC-62 melanoma is 0.275 µM; in the test on SF-539 CNS, 0.487 µM; in the test on CAKI-1 renal it was 0.392 µM; in the test on IGROV1 ovarian, 0.655 µM; with SK-MEL-28 melanoma, 7.14 µM; in the test on T-47D breast, 0.322 µM. Besides, the GI50 in the test on SF-268 CNS is 1.24 µM; in the test on SK-MEL-5 melanoma, 0.214 µM; in the test with BT-549 breast it was 0.568 µM; in the test with NCI-H23 lung, 0.969 µM. Also, the TGI was over 50 µM in the test with UACC-62 melanoma; 1.68 µM in the test on SF-539 CNS; over 50 µM with CAKI-1 renal; over 50 µM with IGROV1 ovarian; over 50 µM with SK-MEL-28 melanoma; over 50 µM with T-47D breast. The TGI was over 50 µM with SF-268 CNS, 7.58 µM in the test on SK-MEL-5 melanoma, over 50 µM with BT-549 breast and over 50 µM in the test with NCI-H23 lung.

`C[C@]12C3CC[C@@]4(CO)C[C@]3(CCC1[C@](C)(C(=O)O)CC[C@@H]2O)CC4=O` (some centres undefined): the GI50 in the test with UACC-62 melanoma, in the test with SF-539 CNS, with CAKI-1 renal, in the test on IGROV1 ovarian, with SK-MEL-28 melanoma and in the test on T-47D breast was over 100 µM each time. For the same compound, the GI50 in the test with SF-268 CNS, in the test on SK-MEL-5 melanoma, in the test with BT-549 breast and in the test with NCI-H23 lung was over 100 µM in each case. Further, the TGI in the test with UACC-62 melanoma, with SF-539 CNS, in the test with CAKI-1 renal, with IGROV1 ovarian, with SK-MEL-28 melanoma and with T-47D breast was over 100 µM throughout. Further, the TGI in the test on SF-268 CNS, in the test with SK-MEL-5 melanoma, in the test with BT-549 breast and with NCI-H23 lung was over 100 µM in each case.

On to `CCN(CC)CCOc1ccc2c(c1)C(=O)c1cc(OCCN(CC)CC)ccc1-2`, for which the GI50 in the test on UACC-62 melanoma was 12.4 µM; in the test with SF-539 CNS, 2.54 µM; in the test on CAKI-1 renal, 30.2 µM; in the test on IGROV1 ovarian, 6.65 µM; in the test on SK-MEL-28 melanoma, 15.1 µM; with T-47D breast it was 23.8 µM. Moreover, the GI50 in the test on SF-268 CNS was 8.5 µM; in the test with SK-MEL-5 melanoma, 12.2 µM; with BT-549 breast, 20.4 µM; with NCI-H23 lung, 11.9 µM. Moreover, the TGI is 26.7 µM with UACC-62 melanoma; 5.72 µM in the test on SF-539 CNS; over 100 µM with CAKI-1 renal; 43.2 µM with IGROV1 ovarian; 29.4 µM in the test on SK-MEL-28 melanoma; 56.2 µM with T-47D breast. For the same compound, the TGI in the test on SF-268 CNS is 33.1 µM; in the test on SK-MEL-5 melanoma it was 24.6 µM; in the test with BT-549 breast, 46.5 µM; in the test with NCI-H23 lung it was 27.5 µM.

`COc1cc2cc(Oc3ccc(NC(=O)Nc4ccc(Cl)c(C(F)(F)F)c4)cc3)c(C)nc2cc1OC`: the GI50 is 1.24 µM in the test with UACC-62 melanoma; 1.96 µM in the test with SF-539 CNS; 0.782 µM in the test on CAKI-1 renal; 2.34 µM in the test on IGROV1 ovarian; 1.41 µM in the test on SK-MEL-28 melanoma; 1.21 µM in the test with T-47D breast. Moreover, the GI50 with SF-268 CNS is 1.55 µM; in the test with SK-MEL-5 melanoma, 0.793 µM; in the test on BT-549 breast it was 0.981 µM; in the test with NCI-H23 lung, 0.991 µM. For the same compound, the TGI was found to be 6.01 µM in the test with UACC-62 melanoma; 8.39 µM with SF-539 CNS; 2.54 µM with CAKI-1 renal; 9.83 µM in the test on IGROV1 ovarian; 5.45 µM in the test on SK-MEL-28 melanoma; 7.9 µM in the test with T-47D breast. Moreover, the TGI came to 6.34 µM in the test on SF-268 CNS, 2.17 µM in the test on SK-MEL-5 melanoma, 4.59 µM in the test on BT-549 breast and 3.79 µM in the test on NCI-H23 lung.

`NC(Cc1ccnnc1)C(=O)O` (centres undefined): the TGI with UACC-62 melanoma, in the test with SF-539 CNS, in the test on CAKI-1 renal, with IGROV1 ovarian, in the test with SK-MEL-28 melanoma and with T-47D breast was over 100 µM throughout. In addition, the TGI in the test on SF-268 CNS, in the test on SK-MEL-5 melanoma, with BT-549 breast and in the test on NCI-H23 lung was over 100 µM throughout.

In the case of `C1=C(c2ccccc2)C(c2ccc(OCCN3CCCCC3)cc2)Oc2ccccc21` (centres undefined), the GI50 in the test with UACC-62 melanoma is 1.92 µM; in the test with SF-539 CNS it was 1.62 µM; in the test with CAKI-1 renal, 1.34 µM; with IGROV1 ovarian, 2.07 µM; with SK-MEL-28 melanoma, 1.18 µM; with T-47D breast, 1.04 µM. The GI50 in the test on SF-268 CNS is 2.66 µM; in the test on SK-MEL-5 melanoma, 1.78 µM; in the test on BT-549 breast it was 1.61 µM; with NCI-H23 lung it was 2.29 µM. The TGI amounted to 3.68 µM in the test with UACC-62 melanoma; 3.08 µM in the test on SF-539 CNS; 2.75 µM in the test on CAKI-1 renal; 5.07 µM with IGROV1 ovarian; 2.54 µM in the test with SK-MEL-28 melanoma; 2.78 µM with T-47D breast. The TGI in the test with SF-268 CNS came out at 9.93 µM; in the test with SK-MEL-5 melanoma, 3.16 µM; in the test with BT-549 breast it was 3.07 µM; in the test on NCI-H23 lung it was 6.3 µM.

As for `O=C1c2ccn(CCCCN3CCCCC3)c2C(=O)c2c1c(O)c1ccccc1c2O`, the TGI in the test with UACC-62 melanoma is 1.32 µM; in the test on SF-539 CNS, 42.1 µM; in the test with CAKI-1 renal, 3.83 µM; in the test on IGROV1 ovarian, over 100 µM; with SK-MEL-28 melanoma, 44.2 µM; in the test with T-47D breast, over 59.6 µM. Besides, the TGI in the test on SF-268 CNS is 42.7 µM; with SK-MEL-5 melanoma, 33.9 µM; in the test on BT-549 breast, 38.3 µM; with NCI-H23 lung, over 48.3 µM. For the same compound, the GI50 in the test with SF-539 CNS was 6 µM; in the test on CAKI-1 renal, 1.63 µM; in the test on IGROV1 ovarian it was 11.1 µM; with SK-MEL-28 melanoma, 3.73 µM; in the test with T-47D breast it was 23.6 µM; in the test on SF-268 CNS, 14.9 µM. For the same compound, the values for the GI50 in the test with SK-MEL-5 melanoma, with BT-549 breast and with NCI-H23 lung were 13.3 µM, 17.7 µM and 23.1 µM, respectively.

For `CS(=O)(=O)CCn1c(=O)c(Oc2ccc(F)cc2F)cc2cnc(NC3CCOCC3)nc21`, the GI50 in the test with UACC-62 melanoma, in the test with SF-539 CNS, in the test on CAKI-1 renal, with IGROV1 ovarian, with SK-MEL-28 melanoma and in the test with T-47D breast was over 25 µM each time. The GI50 in the test on SF-268 CNS, with SK-MEL-5 melanoma, in the test on BT-549 breast and with NCI-H23 lung was over 25 µM in each case. For the same compound, the TGI with UACC-62 melanoma, in the test with SF-539 CNS, in the test on CAKI-1 renal, in the test with IGROV1 ovarian, with SK-MEL-28 melanoma and in the test on T-47D breast was over 25 µM throughout. Further, the TGI in the test on SF-268 CNS, with SK-MEL-5 melanoma, in the test with BT-549 breast and in the test on NCI-H23 lung was over 25 µM each time.
